Results as given in patent publication EP0895988B1, “Arylsulfonylamino hydroxamic acid derivatives” (Pfizer Products Inc., priority 1997, dated 1999).
Several values for one entry are separate records, joined by “and”; a condition that tells them apart may be missing. Identical values can stand only once.

Experiments:
Human recombinant MMP-13 = Human recombinant MMP-13 (Homo sapiens, UniProt P45452); assay: Inhibition of MMP-13; format: biochemical; conditions: fluorogenic substrate Dnp-Pro-Cha-Gly-Cys(Me)-His-Ala-Lys(NMA)-NH2; repeated determinations
Procedure: Human recombinant MMP-13 is activated with 2mM APMA (p-aminophenyl mercuric acetate) for 1.5 hours, at 37°C and is diluted to […] in assay buffer (50 mM Tris, pH 7.5, 200 mM sodium chloride, 5mM calcium chloride, […], 0.02% brij). Twenty-five microliters of diluted enzyme is added per well of a 96 well microfluor plate. The enzyme is then diluted in a 1:4 ratio in the assay by the addition of inhibitor and substrate to give a final concentration in the assay of […].
10 mM stock solutions of inhibitors are made up in dimethyl sulfoxide and then diluted in assay buffer as per the inhibitor dilution scheme for inhibition of human collagenase (MMP-1): Twenty-five microliters of each concentration is added in triplicate to the microfluor plate. The final concentrations in the assay are 30 mM, 3mM, 0.3 mM, and 0.03 mM.
Substrate (Dnp-Pro-Cha-Gly-Cys(Me)-His-Ala-Lys(NMA)-NH2) is prepared as for inhibition of human collagenase (MMP-1) and […] is added to each well to give a final assay concentration of […]. Fluorescence readings (360 nm excitation; 450 emission) are taken at time 0 and every 5 minutes for 1 hour.
Positive controls consist of enzyme and substrate with no inhibitor and blanks consist of substrate only.
IC50's are determined as per inhibition of human collagenase (MMP-1). If IC50's are reported to be less than […], inhibitors are then assayed at final concentrations of 0.3 mM, 0.03 mM, 0.003 mM and 0.0003 mM.

[1] = target: T1, Human recombinant collagenase (MMP-1) (Homo sapiens, UniProt P03956); assay: Inhibition of Human Collagenase (MMP-1); format: biochemical; conditions: fluorogenic substrate DNP-Pro-Cha-Gly-Cys(Me)-His-Ala-Lys(NMA)-NH2; room temperature; repeated determinations
T1 sequence (P03956 100-469): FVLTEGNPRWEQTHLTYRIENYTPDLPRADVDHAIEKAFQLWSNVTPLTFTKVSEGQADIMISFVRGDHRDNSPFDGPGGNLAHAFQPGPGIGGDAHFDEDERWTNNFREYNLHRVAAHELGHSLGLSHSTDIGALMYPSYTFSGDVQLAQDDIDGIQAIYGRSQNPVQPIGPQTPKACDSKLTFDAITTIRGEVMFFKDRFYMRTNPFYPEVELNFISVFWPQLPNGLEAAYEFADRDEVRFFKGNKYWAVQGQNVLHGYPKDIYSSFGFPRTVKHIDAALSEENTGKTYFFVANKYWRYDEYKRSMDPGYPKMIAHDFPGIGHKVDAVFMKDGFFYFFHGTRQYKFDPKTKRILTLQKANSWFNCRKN
Procedure: Human recombinant collagenase is activated with trypsin using the following ratio: […] of collagenase. The trypsin and collagenase are incubated at room temperature for 10 minutes then a five fold excess (50 mg/10 mg trypsin) of soybean trypsin inhibitor is added.
10 mM stock solutions of inhibitors are made up in dimethyl sulfoxide and then diluted using the following Scheme: 10 mM → 120 µm → 12 µM → 1.2 µM → 0.12 µM [formula]
Twenty-five microliters of each concentration is then added in triplicate to appropriate wells of a 96 well microfluor plate. The final concentration of inhibitor will be a 1:4 dilution after addition of enzyme and substrate. Positive controls (enzyme, no inhibitor) are set up in wells D1-D6 and blanks (no enzyme, no inhibitors) are set in wells D7-D12.
Collagenase is diluted to 400 ng/ml and […] is then added to appropriate wells of the microfluor plate. Final concentration of collagenase in the assay is 100 ng/ml.
Substrate (DNP-Pro-Cha-Gly-Cys(Me)-His-Ala-Lys(NMA)-NH2) is made as a 5 mM stock in dimethyl sulfoxide and then diluted to […] in assay buffer. The assay is initiated by the addition of […] substrate per well of the microfluor plate to give a final concentration of […].
Fluorescence readings (360 nm excitation, 460 nm emission) were taken at time 0 and then at 20 minute intervals. The assay is conducted at room temperature with a typical assay time of 3 hours.
Fluorescence vs time is then plotted for both the blank and collagenase containing samples (data from triplicate determinations is averaged). […] The zero time is used as a blank for each compound at each concentration and these values are subtracted from the 120 minute data. Data is plotted as inhibitor concentration vs % control (inhibitor fluorescence divided by fluorescence of collagenase alone x 100). IC50's are determined from the concentration of inhibitor that gives a signal that is 50% of the control.
If IC50's are reported to be <0.03 mM then the inhibitors are assayed at concentrations of 0.3 mM, 0.03 mM, […].

IC50 (Human recombinant MMP-13) | IC50 [1] | SMILES
10 nM and 12 nM | 80 nM and 145 nM | COC(=O)CCN(C1(C(=O)NO)CCCC1)S(=O)(=O)c1ccc(-c2ccc(F)cc2)cc1 [Example 1, 3-[(4'-FLUOROBIPHENYL-4-SULFONYL)-(1-HYDROXYCARBAMOYLCYCLO-PENTYL)AMINO]PROPIONIC ACID METHYL ESTER]
1.7 nM and 3.5 nM and 2 nM | 195 nM and 300 nM and 200 nM | O=C(O)CCN(C1(C(=O)NO)CCCC1)S(=O)(=O)c1ccc(-c2ccc(F)cc2)cc1 [Example 2, 3-[(4'-FLUOROBIPHENYL-4-SULFONYL)-(1-HYDROXYCARBAMOYLCYCLO-PENTYL)AMINO]PROPIONIC ACID]
20 nM and 17 nM | 4000 nM and 1300 nM | CCOC(=O)CCN(C(C)(C)C(=O)NO)S(=O)(=O)c1ccc(-c2ccc(F)cc2)cc1 [Example 3, 3-{(4'-FLUOROBIPHENYL-4-SULFONYL)-(1-HYDROXYCARBAMOYL-1-METHYL-ETHYL)AMINO]-PROPIONIC ACID ETHYL ESTER]
52 nM | 800 nM | CC(C)(C(=O)NO)N(CCC(=O)O)S(=O)(=O)c1ccc(-c2ccc(F)cc2)cc1 [Example 4, 3-[(4'-FLUOROBIPHENYL-4-SULFONYL)-(1-HYDROXYCARBAMOYL-1-METHYL-ETHYL)AMINO]PROPIONIC ACID]
